Reference: patent US20250243180A1, “TARGETED PROTEIN DEGRADATION” (Monte Rosa Therapeutics AG, priority 2023, published 2025)
Read-outs that look alike come from different tables or passages of the source.

Experiments:
[1] = target: CRBN-DDB1 (Homo sapiens (Human), UniProt Q96SW2); assay: Compound binding to CRBN by HTRF assay
Protocol: Compound activity was monitored in a Homogenous Time-Resolved Fluorescence (HTRF) assay using 1-[5-({2-[2-(2-{[2-(2,6-dioxopiperidin-3-yl)-1,3-dioxo-2,3-dihydro-1H-isoindol-4-yl]oxy}acetamido)ethoxy]ethyl}carbamoyl)pentyl]-3,3-dimethyl-2-[(1E,3E)-5-[(2E)-1,3,3-trimethyl-5-sulfo-2,3-dihydro-1H-indol-2-ylidene]penta-1,3-dien-1-yl]-3H-indol-1-ium-5-sulfonate as a fluorescent probe. Biochemical assays were conducted in Greiner white 384 well HiBase plates (Cat. No 784075-25) in 20 μL total volume. A one pot detection solution of CRBN-DDB1 (2.5 nM), Anti-His Terbium Cryptate Gold (1×, PerkinElmer Cat. #: 61HI2TLB), and Cy5-Thalidomide (100 nM, Tenova Cat.: T52461) was prepared in 20 mM HEPES, 20 mM NaCl, 0.2 mM TCEP, 0.2 mM EDTA, and 0.005% Tween20 was dispensed to each assay plate. Compounds were stored in dry, ambient temperatures at 10 mM. An 11-point, 1:3 dilution series was prepared from 10 mM stock concentrations in Echo-compatible LDV plates. 10 nL of each compound dilution series was dispensed into assays wells using an Echo 650 (Labcyte Inc. USA). 20 nL of 10 mM Lenalidomide was transferred into the active-control wells for the assay and 20 nL of DMSO was transferred into the neutral-control wells. The assay was then allowed to incubate for 30 min at ambient temperature after transferring compound. Plate measurements were taken on a Pherastar FSX (BMG Labtech, Germany) using the HTRF Red filter (Ex. 337 nm, em1: 620 nm, em2: 665 nm) (Flashes: 50, Integration time: 60-400 us, Z-height: 10 mm, Ratio-multiplier: 10,000). The HTRF signal was then subsequently normalized to the neutral and active controls. Analysis and EC50 values were derived using KNIME analytics (KNIME Zurich) transformation and fitting within Collaborative Drug Discovery (Collaborative Drug Discovery USA). Ki was derived from the geometric mean of the EC50 values using the Cheng-Prustoff transformation.

[2] = target: NEK7 (Homo sapiens (Human), UniProt Q8TDX7+Q96SW2); assay: NEK7 NanoBiT degradation assay in Cal51 NEK7 NanoBiT cell line; format: cell-based; details: Cal51 NEK7 NanoBiT cells, 24 hours; for Dmax: CAL-51
Protocol: Cal51 NEK7 NanoBiT cell line was generated via CRISPR Knock-In of the HiBiT tag in NEK7 gene and stable infection with a lentivirus carrying LgBiT protein. The cell line was generated in house. For the experiment, cells were plated in 384-well white flat bottom plates (Corning, 3570BC) at 2500 cells per well using Multiflo (BioTek/Agilent) and in 25 μl volume in DMEM experimental medium: DMEM (DMEM, high glucose, HEPES, no phenol red (ThermoFisher Scientific, 21063029) supplemented with 10% FBS (Corning, 35-075-CV), 1% Penicillin/Streptomycin ((ThermoFisher Scientific, 15140-122), and 1% Endurazine (Nano-Glo Endurazine Live Cell Substrate (Promega, N2571)). Cells were incubated for 16 hours at 37° C., 5% CO2 before compound addition. For dose response determination, 2.5 nL of a compound at different concentrations (stock compound concentration range: 10 mM to 0.5 μM, final concentration range inside cell plate: 1 μM to 0.05 nM) were dispensed into the plate using an Echo® 650 liquid handling device (Backman Coulter/Labcyte). Cells were incubated at 37° C., 5% CO2 for 24 hours and then signal was read on a Pherastar FSX using “LUM plus” optic module with 4095 gain and measurement interval time 0.2 seconds.
Analysis was performed in Genedata Screener (Genedata, Basel, CH). Luminescence response (R) was calculated by the formula: response=100*(S−N)/(P−N) where S is the signal of the well, N and P the mean negative and positive control values respectively of the same plate. The luminescence response was then fitted in Genedata using a 4-parameter antagonist logistic fit (hill slope unconstrained, EC50>0, top/bottom unconstrained).

[3] = NEK7 degradation, read-out: NanoBiT Dmax
[4] = NEK7 degradation, read-out: NanoBiT DC50

Chain of NEK7 (Q8TDX7 whole entry): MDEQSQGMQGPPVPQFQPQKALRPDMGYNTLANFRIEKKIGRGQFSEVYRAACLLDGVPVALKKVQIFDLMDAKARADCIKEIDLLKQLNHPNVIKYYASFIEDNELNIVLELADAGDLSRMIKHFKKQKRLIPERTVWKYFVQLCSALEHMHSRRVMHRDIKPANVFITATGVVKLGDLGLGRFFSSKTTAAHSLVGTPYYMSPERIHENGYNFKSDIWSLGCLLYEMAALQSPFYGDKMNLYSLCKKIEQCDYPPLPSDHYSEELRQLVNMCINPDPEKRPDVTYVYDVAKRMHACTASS
Chain of NEK7 (Q96SW2 whole entry): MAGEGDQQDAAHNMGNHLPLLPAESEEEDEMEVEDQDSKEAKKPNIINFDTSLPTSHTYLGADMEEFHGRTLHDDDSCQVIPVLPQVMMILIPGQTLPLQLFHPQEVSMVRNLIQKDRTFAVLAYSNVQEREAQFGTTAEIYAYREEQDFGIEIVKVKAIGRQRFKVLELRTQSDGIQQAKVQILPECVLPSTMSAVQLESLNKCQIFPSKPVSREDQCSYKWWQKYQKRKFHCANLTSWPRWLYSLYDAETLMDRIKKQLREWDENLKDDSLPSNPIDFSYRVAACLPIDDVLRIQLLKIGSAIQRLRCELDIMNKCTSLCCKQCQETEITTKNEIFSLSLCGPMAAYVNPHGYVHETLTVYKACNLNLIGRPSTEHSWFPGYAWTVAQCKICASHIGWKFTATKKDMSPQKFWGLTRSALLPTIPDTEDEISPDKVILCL
Chain of NEK7 (Q16531 2-1140 partner): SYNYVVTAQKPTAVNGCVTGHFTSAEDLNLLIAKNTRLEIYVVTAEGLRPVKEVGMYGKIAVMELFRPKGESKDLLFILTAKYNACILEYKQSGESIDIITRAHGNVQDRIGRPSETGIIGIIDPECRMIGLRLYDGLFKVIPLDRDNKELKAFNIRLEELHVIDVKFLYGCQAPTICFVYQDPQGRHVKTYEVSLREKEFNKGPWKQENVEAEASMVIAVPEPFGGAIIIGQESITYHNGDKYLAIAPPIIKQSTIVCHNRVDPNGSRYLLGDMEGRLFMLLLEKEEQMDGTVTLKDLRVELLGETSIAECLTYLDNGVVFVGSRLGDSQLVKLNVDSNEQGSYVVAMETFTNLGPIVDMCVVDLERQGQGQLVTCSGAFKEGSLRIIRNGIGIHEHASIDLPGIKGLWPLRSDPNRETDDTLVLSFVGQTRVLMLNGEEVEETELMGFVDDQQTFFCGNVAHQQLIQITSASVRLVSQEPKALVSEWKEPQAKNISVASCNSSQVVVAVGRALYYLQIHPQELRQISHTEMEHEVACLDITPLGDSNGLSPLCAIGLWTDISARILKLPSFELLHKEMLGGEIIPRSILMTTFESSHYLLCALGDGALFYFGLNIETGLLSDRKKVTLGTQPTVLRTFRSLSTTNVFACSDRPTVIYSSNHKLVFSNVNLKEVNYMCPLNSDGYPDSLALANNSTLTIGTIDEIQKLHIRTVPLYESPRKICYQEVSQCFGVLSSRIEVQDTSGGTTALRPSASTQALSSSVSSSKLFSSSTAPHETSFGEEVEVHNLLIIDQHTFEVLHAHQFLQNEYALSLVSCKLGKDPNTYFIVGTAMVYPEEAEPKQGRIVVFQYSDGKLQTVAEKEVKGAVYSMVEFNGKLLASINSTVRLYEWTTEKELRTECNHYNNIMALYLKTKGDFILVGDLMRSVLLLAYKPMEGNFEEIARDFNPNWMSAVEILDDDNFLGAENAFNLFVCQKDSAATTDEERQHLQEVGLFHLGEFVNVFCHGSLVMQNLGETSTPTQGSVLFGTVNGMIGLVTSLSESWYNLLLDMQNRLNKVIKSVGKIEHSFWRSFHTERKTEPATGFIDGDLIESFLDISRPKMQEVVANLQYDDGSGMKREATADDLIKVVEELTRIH
Chain of CRBN-DDB1 (Q96SW2 whole entry): as the sequence (Q96SW2 whole entry) above
Chain of CRBN-DDB1 (Q16531 whole entry partner): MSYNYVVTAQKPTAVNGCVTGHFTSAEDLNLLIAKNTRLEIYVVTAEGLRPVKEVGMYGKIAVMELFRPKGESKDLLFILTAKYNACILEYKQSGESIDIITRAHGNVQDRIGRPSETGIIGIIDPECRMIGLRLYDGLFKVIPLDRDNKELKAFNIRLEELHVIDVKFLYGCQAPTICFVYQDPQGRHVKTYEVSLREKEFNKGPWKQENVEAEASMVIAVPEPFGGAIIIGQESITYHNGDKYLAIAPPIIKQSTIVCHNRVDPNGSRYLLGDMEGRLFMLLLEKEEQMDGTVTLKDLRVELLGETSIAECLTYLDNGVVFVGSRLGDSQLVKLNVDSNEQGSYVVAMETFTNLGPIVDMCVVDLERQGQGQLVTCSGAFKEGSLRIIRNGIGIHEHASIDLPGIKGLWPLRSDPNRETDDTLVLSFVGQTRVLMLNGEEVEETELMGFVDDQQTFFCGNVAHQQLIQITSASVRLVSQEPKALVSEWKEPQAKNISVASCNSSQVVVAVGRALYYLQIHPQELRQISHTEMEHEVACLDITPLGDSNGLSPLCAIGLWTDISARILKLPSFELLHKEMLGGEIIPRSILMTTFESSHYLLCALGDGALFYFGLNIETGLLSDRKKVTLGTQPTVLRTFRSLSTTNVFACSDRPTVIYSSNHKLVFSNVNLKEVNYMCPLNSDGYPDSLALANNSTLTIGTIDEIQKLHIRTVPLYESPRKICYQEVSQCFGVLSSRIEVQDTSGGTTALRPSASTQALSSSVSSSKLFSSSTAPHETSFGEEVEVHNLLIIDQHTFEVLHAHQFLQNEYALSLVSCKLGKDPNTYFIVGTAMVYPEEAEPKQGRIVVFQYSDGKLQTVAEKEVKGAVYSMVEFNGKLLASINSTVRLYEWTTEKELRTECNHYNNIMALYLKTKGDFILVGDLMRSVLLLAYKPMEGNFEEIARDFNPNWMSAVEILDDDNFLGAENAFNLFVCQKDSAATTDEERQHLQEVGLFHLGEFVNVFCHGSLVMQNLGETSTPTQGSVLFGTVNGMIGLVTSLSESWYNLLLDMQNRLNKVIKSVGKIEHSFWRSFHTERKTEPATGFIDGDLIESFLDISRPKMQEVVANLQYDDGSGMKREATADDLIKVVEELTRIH

SMILES | EC50 [1] [nM] | EC50 ([1]; HTRF class, Cereblon binding) [nM] | Dmax ([2]; read-out: NEK7 NanoBiT Dmax) [%] | Dmax [2, 3] [%] | DC50 ([2]; read-out: NEK7 NanoBiT DC50) [nM] | DC50 [2, 4] [nM]
CC(C)(C(=O)NCc1cc(Cl)c(C2CCC(=O)NC2=O)c(Cl)c1)c1cc2ncccc2cn1 (stereo not drawn) [Compound 2, N-(3,5-dichloro-4-(2,6-dioxopiperidin-3-yl)benzyl)-2-methyl-2-(1,6-naphthyridin-7-yl)propanamide] | 110 | 100 to 1000 | 94 | > 75 | 3 | ≤ 100
CC(C)(C(=O)NCc1ccc(C2CCC(=O)NC2=O)c(Cl)c1)c1cnc(F)nc1 (stereo not drawn) [Compound 3] | 500 | 100 to 1000 | 65 | 50 to 75 | 242 | 100 to 1000
CC(C)(C(=O)NCc1cc(Cl)c(C2CCC(=O)NC2=O)c(Cl)c1)c1ccc(C(F)F)cn1 (stereo not drawn) [Compound 4, N-(3,5-dichloro-4-(2,6-dioxopiperidin-3-yl)benzyl)-2-(5-(difluoromethyl)pyridin-2-yl)-2-methylpropanamide] | 120 | 100 to 1000 | 94 | > 75 | 3 | ≤ 100
CC(C)(C(=O)NCc1cc(Cl)c(C2CCC(=O)NC2=O)c(Cl)c1)c1cnc(F)nc1 (stereo not drawn) [Compound 5, N-(3,5-dichloro-4-(2,6-dioxopiperidin-3-yl)benzyl)-2-(2-fluoropyrimidin-5-yl)-2-methylpropanamide] | 120 | 100 to 1000 | 63 | 50 to 75 | 133 | 100 to 1000
CC(C)(C(=O)NCc1cc(Cl)c(C2CCC(=O)NC2=O)c(Cl)c1)c1ccc(C(F)F)nn1 (stereo not drawn) [Compound 6, N-(3,5-dichloro-4-(2,6-dioxopiperidin-3-yl)benzyl)-2-(6-(difluoromethyl)pyridazin-3-yl)-2-methylpropanamide] | 210 | 100 to 1000 | 91 | > 75 | 7 | ≤ 100
CC(C)(C(=O)NCc1cc(Cl)c(C2CCC(=O)NC2=O)c(Cl)c1)c1cccnn1 (stereo not drawn) [Compound 7, N-(3,5-dichloro-4-(2,6-dioxopiperidin-3-yl)benzyl)-2-methyl-2-(pyridazin-3-yl)propanamide] | 150 | 100 to 1000 | 72 | 50 to 75 | 61 | ≤ 100
CC(C)(C(=O)NCc1cc(Cl)c(C2CCC(=O)NC2=O)c(Cl)c1)c1ncncc1F (stereo not drawn) [Compound 8] | 210 | 100 to 1000 | 93 | > 75 | 6 | ≤ 100
Cn1ncc(C(C)(C)C(=O)NCc2cc(Cl)c(C3CCC(=O)NC3=O)c(Cl)c2)cc1=O (stereo not drawn) [Compound 9, N-(3,5-dichloro-4-(2,6-dioxopiperidin-3-yl)benzyl)-2-methyl-2-(1-methyl-6-oxo-1,6-dihydropyridazin-4-yl)propanamide] | 210 | 100 to 1000 | 85 | > 75 | 22 | ≤ 100
CC(C)(C(=O)NCc1cc(Cl)c(C2CCC(=O)NC2=O)c(Cl)c1)c1ccc2ncoc2c1 (stereo not drawn) [Compound 10, 2-(benzo[d]oxazol-6-yl)-N-(3,5-dichloro-4-(2,6-dioxopiperidin-3-yl)benzyl)-2-methylpropanamide] | 60 | ≤ 100 | 97 | > 75 | 1 | ≤ 100
CC(C)(C(=O)NCc1cc(Cl)c(C2CCC(=O)NC2=O)c(Cl)c1)c1ncc(F)cn1 (stereo not drawn) [Compound 11] | 190 | 100 to 1000 | 90 | > 75 | 9 | ≤ 100
Cc1ccc(C(C)(C)C(=O)NCc2cc(Cl)c(C3CCC(=O)NC3=O)c(Cl)c2)nn1 (stereo not drawn) [Compound 12] | 170 | 100 to 1000 | 91 | > 75 | 8 | ≤ 100
CC(C)(C(=O)NCc1cc(Cl)c(C2CCC(=O)NC2=O)c(Cl)c1)c1cnc(C#N)nc1 (stereo not drawn) [Compound 13] | 200 | 100 to 1000 | 73 | 50 to 75 | 56 | ≤ 100
CC(C)(C(=O)NCc1cc(Cl)c(C2CCC(=O)NC2=O)c(Cl)c1)c1ccc(C#N)cn1 (stereo not drawn) [Compound 15, 2-(5-cyanopyridin-2-yl)-N-(3,5-dichloro-4-(2,6-dioxopiperidin-3-yl)benzyl)-2-methylpropanamide] | 120 | 100 to 1000 | 95 | > 75 | 4 | ≤ 100
CC(C)(C(=O)NCc1cc(Cl)c(C2CCC(=O)NC2=O)c(Cl)c1)c1ccncn1 (stereo not drawn) [Compound 19, N-(3,5-dichloro-4-(2,6-dioxopiperidin-3-yl)benzyl)-2-methyl-2-(pyrimidin-4-yl)propanamide] | 140 | 100 to 1000 | 84 | > 75 | 23 | ≤ 100
CC(C)(C(=O)NCc1ccc(C2CCC(=O)NC2=O)c(Cl)c1)c1cccc(F)c1 (stereo not drawn) [Compound 25, N-(3-chloro-4-(2,6-dioxopiperidin-3-yl)benzyl)-2-(3-fluorophenyl)-2-methylpropanamide] | 290 | 100 to 1000 | 87 | > 75 | 23 | ≤ 100

The next lines start with the values.

EC50 [1] [nM] | EC50 ([1]; HTRF class, Cereblon binding) [nM] | Dmax ([2]; read-out: NEK7 NanoBiT Dmax) [%] | Dmax [2, 3] [%] | DC50 ([2]; read-out: NEK7 NanoBiT DC50) [nM] | DC50 [2, 4] [nM] | SMILES
540 | 100 to 1000 | 61 | 50 to 75 | 206 | 100 to 1000 | CC(C)(C(=O)NCc1ccc(C2CCC(=O)NC2=O)c(Cl)c1)c1cccc(C#N)c1 (stereo not drawn) [Compound 18]
70 | ≤ 100 | 86 | > 75 | 13 | ≤ 100 | CC(C)(C(=O)NCc1cc(Cl)c(C2CCC(=O)NC2=O)c(Cl)c1)c1ccccn1 (stereo not drawn) [Compound 20]
90 | ≤ 100 | 94 | > 75 | 3 | ≤ 100 | CC(C)(C(=O)NCc1cc(Cl)c(C2CCC(=O)NC2=O)c(Cl)c1)c1cccc(C#N)c1 (stereo not drawn) [Compound 21, 2-(3-cyanophenyl)-N-(3,5-dichloro-4-(2,6-dioxopiperidin-3-yl)benzyl)-2-methylpropanamide]
120 | 100 to 1000 | 93 | > 75 | 4 | ≤ 100 | CC(C)(C(=O)NCc1cc(Cl)c(C2CCC(=O)NC2=O)c(Cl)c1)c1ccc(F)cn1 (stereo not drawn) [Compound 22]
220 | 100 to 1000 | 88 | > 75 | 22 | ≤ 100 | CC(C)(C(=O)NCc1cc(Cl)c(C2CCC(=O)NC2=O)c(Cl)c1)c1ccn(CC(F)(F)F)c(=O)c1 (stereo not drawn) [Compound 23]
320 | 100 to 1000 | 74 | 50 to 75 | 76 | ≤ 100 | CC(C)(C(=O)NCc1ccc(C2CCC(=O)NC2=O)c(Cl)c1)c1ccccc1F (stereo not drawn) [Compound 24]
70 | ≤ 100 | 96 | > 75 | 2 | ≤ 100 | CC(C)(C(=O)NCc1cc(Cl)c(C2CCC(=O)NC2=O)c(Cl)c1)c1ccccc1F (stereo not drawn) [Compound 26]
